Results published in US20240269139A1, “COMPOUNDS FOR TARGETED PROTEIN DEGRADATION OF KINASES” (DANA-FARBER CANCER INSTITUTE, INC., priority 2020, published 2024).
Read-outs that look alike come from different tables or passages of the source.

Assays:
Type in all cases: cell-based
[1] = target: protein kinases (human kinome) (Homo sapiens, UniProt Q15131); details: for logFC: CDK10 (Q15131-1)
[2] = target: protein kinases (human kinome) (Homo sapiens, UniProt O94921); details: for logFC: CDK14 (O94921-1)
Sequence of protein kinases (human kinome) (Homo sapiens, UniProt O94921) (O94921 whole entry): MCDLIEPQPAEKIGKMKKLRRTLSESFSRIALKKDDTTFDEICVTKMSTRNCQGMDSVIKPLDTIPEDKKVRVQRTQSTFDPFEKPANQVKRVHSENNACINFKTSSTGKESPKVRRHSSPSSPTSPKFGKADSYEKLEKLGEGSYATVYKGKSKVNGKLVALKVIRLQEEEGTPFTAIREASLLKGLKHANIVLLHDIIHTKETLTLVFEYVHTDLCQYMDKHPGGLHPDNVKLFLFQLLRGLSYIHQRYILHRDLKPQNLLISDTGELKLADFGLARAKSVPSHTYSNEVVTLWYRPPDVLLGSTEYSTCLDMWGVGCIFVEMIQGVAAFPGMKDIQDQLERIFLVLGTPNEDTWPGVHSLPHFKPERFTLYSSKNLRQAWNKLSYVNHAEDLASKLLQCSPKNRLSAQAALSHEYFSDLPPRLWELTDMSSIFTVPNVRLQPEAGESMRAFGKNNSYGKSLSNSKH

[3] = target: protein kinases (human kinome) (Homo sapiens, UniProt Q9BVS4); details: RIOK2 Q9BVS4
Sequence of protein kinases (human kinome) (Homo sapiens, UniProt Q9BVS4) (Q9BVS4 whole entry): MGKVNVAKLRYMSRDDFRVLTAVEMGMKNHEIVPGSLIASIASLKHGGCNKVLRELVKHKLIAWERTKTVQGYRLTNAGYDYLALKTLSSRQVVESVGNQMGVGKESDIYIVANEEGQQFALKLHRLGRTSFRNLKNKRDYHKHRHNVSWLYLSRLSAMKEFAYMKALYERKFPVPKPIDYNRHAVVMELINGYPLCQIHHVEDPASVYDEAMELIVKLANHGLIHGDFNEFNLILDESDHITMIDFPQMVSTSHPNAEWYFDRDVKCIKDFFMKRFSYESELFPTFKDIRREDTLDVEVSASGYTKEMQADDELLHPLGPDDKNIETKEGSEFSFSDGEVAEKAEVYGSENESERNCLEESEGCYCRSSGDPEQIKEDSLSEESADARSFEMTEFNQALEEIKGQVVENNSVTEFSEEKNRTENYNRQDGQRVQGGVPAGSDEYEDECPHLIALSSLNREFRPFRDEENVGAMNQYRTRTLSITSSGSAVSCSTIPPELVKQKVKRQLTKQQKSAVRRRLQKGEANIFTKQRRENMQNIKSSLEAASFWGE

[4] = target: protein kinases (human kinome) (Homo sapiens, UniProt P12931); details: for logFC of SRC: Accession P12931; for logFC: SRC (P12931), direction down
Sequence of protein kinases (human kinome) (Homo sapiens, UniProt P12931) (P12931 whole entry): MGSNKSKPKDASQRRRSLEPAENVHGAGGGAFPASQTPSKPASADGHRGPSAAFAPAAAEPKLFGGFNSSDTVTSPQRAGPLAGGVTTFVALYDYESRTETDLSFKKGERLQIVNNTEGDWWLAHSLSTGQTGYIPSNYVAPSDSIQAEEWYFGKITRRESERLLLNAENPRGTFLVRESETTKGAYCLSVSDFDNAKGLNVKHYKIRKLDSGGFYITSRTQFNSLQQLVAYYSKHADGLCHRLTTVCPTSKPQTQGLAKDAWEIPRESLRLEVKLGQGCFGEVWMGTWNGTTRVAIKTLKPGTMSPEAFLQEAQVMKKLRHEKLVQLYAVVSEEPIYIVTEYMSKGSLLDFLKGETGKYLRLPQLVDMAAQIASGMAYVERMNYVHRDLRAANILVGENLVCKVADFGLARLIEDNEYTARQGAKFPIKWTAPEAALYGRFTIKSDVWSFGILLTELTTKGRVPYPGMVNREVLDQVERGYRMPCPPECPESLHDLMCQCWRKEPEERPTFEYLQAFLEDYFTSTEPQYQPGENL

[5] = target: T1, protein kinases (human kinome) (Homo sapiens, UniProt O00444)
T1 sequence (O00444 1-970): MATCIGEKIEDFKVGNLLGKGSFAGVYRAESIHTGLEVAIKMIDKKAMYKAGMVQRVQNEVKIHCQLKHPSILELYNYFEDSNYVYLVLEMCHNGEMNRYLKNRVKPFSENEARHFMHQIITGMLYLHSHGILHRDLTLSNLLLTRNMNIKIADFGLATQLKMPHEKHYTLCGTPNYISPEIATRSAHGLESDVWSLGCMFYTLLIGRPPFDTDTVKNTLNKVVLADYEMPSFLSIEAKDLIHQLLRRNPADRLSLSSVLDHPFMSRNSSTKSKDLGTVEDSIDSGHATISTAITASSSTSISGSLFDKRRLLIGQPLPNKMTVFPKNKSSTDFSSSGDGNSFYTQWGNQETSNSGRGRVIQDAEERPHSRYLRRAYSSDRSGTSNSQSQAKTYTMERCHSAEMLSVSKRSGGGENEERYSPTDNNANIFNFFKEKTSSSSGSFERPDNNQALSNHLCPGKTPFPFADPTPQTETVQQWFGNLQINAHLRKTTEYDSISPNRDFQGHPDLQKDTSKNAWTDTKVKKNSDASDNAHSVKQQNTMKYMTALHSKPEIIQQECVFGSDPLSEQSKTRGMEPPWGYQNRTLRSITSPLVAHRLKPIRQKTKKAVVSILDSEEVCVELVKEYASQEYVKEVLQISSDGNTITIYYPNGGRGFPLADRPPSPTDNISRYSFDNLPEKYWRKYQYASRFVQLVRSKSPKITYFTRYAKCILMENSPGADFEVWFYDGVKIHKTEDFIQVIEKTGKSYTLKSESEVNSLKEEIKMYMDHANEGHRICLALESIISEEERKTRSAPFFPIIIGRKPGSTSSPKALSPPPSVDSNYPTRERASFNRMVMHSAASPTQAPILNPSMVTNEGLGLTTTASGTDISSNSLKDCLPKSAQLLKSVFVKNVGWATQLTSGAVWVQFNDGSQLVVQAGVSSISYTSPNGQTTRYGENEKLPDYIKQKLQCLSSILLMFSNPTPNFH

[6] = target: protein kinases (human kinome) (Homo sapiens, UniProt Q05397)
Sequence of protein kinases (human kinome) (Homo sapiens, UniProt Q05397) (Q05397 whole entry): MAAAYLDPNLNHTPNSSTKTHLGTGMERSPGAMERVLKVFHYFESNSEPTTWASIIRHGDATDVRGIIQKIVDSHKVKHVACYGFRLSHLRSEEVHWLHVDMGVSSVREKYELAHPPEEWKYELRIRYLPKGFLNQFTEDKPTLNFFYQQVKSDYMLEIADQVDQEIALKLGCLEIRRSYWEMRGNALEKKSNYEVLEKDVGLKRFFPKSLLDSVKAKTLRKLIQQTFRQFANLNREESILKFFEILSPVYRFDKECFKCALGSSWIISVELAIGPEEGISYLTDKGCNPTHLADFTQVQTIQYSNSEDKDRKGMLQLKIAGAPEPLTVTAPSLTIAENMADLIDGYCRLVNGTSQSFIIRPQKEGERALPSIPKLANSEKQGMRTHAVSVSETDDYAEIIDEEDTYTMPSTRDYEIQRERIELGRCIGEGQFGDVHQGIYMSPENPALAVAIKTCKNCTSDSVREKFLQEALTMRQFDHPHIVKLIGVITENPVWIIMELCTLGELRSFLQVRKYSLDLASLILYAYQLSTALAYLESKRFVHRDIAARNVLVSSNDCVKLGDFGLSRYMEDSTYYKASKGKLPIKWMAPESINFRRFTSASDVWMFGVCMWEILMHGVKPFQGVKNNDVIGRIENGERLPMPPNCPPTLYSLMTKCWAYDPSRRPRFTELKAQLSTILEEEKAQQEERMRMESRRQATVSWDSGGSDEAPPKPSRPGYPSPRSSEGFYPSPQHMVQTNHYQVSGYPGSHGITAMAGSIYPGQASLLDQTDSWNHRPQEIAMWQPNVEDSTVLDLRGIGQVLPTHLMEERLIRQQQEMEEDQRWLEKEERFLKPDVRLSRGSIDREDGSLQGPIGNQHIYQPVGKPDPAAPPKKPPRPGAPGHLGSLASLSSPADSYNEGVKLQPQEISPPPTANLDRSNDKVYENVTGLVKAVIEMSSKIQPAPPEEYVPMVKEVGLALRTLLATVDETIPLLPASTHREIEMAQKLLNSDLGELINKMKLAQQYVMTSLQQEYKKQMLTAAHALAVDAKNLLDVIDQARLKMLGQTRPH

[7] = target: protein kinases (human kinome) (Homo sapiens, UniProt O14874); details: BCKDK (O14874), experiment wp160, 1 hr
[8] = Accession Q05397, experiment wp105, direction down

Sequence of protein kinases (human kinome) (Homo sapiens, UniProt Q15131) (Q15131 whole entry): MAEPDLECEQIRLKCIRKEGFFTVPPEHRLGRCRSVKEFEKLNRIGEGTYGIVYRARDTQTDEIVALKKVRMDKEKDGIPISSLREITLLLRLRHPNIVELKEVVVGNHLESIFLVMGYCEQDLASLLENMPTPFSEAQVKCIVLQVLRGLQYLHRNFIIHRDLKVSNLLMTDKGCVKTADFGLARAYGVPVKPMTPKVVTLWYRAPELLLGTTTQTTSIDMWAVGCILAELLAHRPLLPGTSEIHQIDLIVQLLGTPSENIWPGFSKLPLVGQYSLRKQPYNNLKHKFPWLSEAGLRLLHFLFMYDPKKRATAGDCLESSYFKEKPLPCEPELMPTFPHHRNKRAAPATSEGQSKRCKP

CNC(=O)c1ccccc1Nc1cc(Nc2ccc(N3CCN(CCOCCOCCNC(=O)CNc4cccc5c4C(=O)N(C4CCC(=O)NC4=O)C5=O)CC3)cc2OC)ncc1C(F)(F)F (centres unmarked) [MFH.5.103.1]
logFC ([1]; experiment wp076): −0.6988
logFC of CDK10 (Q15131-1) ([1]; experiment wp076): −0.6988

O=C(COc1cccc2c1C(=O)N(C1CCC(=O)NC1=O)C2=O)NCCCCCCCN1CCc2cc(Nc3ncc(C4CC4)c(NCCCNC(=O)C4CCC4)n3)ccc2C1 (centres unmarked) [BSJ.04.178]
logFC ([1]; experiment wp134): −0.6546
logFC of CDK10 (Q15131-1) ([1]; experiment wp134): −0.6546

O=C1CCC(N2C(=O)c3cccc(NCCCCCCCCN4CCC(NC(=O)c5[nH]ncc5NC(=O)c5c(Cl)cccc5Cl)CC4)c3C2=O)C(=O)N1 (centres unmarked) [MFH.5.126.1]
logFC ([2]; experiment wp076): −0.3413
logFC of CDK14 (O94921-1) ([2]; experiment wp076): −0.3413
logFC ([3]; experiment wp076): −0.7874
logFC RIOK2 ([3]; experiment wp076): −0.7874

Cc1ccc(NC(=O)c2cccc(C(F)(F)F)c2)cc1N1Cc2cnc(Nc3ccc(N4CCN(CCCOc5cccc6c5C(=O)N(C5CCC(=O)NC5=O)C6=O)CC4)nc3)nc2N(C)C1=O (centres unmarked) [DB0662]
logFC of SRC ([4]; experiment wp168): −0.9018
logFC of SRC (P12931) ([4]; Experiment wp168): −0.9018

CC(C)S(=O)(=O)c1ccccc1Nc1nc(Nc2ccc(N3CCN(CCOCCOCCNC(=O)CNc4cccc5c4C(=O)N(C4CCC(=O)NC4=O)C5=O)CC3)cc2)ncc1Cl (centres unmarked) [TL12.186]
logFC PLK4 ([5]; Accession O00444, experiment wp131, direction down): −1.559
logFC PLK4 ([5]; Accession O00444, experiment wp137, direction down): −1.159
logFC PLK4 ([5]; PLK4 (O00444), experiment wp137): −1.159
logFC PLK4 (O00444) ([5]; experiment wp131): −1.559
logFC ([1]; experiment wp131): −0.935
logFC of CDK10 (Q15131-1) ([1]; experiment wp131): −0.935
logFC ([3]; experiment wp131): −0.9134
logFC RIOK2 ([3]; experiment wp131): −0.9134
logFC ([3]; experiment wp137): −0.7728
logFC RIOK2 ([3]; experiment wp137): −0.7728

Cc1ccc(C(=O)Nc2ccc(CN3CCN(CCCOCCOCCOCCNC(=O)COc4cccc5c4C(=O)N(C4CCC(=O)NC4=O)C5=O)CC3)c(C(F)(F)F)c2)cc1C#Cc1cnc2cccnn12 (centres unmarked) [SB1.G.187]
logFC ([2]; experiment wp172): −1.525
logFC of CDK14 (O94921-1) ([2]; Experiment wp172): −1.525

Cc1ccc(NC(=O)c2cccc(C(F)(F)F)c2)cc1N1Cc2cnc(Nc3ccc(N4CCN(Cc5cn(CCCCCOc6cccc7c6C(=O)N(C6CCC(=O)NC6=O)C7=O)nn5)CC4)nc3)nc2N(C)C1=O (centres unmarked) [DB0646, N-(3-(7-((6-(4-((1-(5-((2-(2,6-Dioxopiperidin-3-yl)-1,3-dioxoisoindolin-4-yl)oxy)pentyl)-1H-1,2,3-triazol-4-yl)methyl)piperazin-1-v)pyridin-3-yl)amino)-1-methyl-2-oxo-1,4-dihydropyrimido[4,5-d]pyrimidin-3(2H)-yl)-4-methylphenyl)-3-(trifluoromethyl)benzamide]
logFC of SRC ([4]; experiment wp152): −0.3941
logFC of SRC ([4]; experiment wp160, 4 hr): −0.5186
logFC of SRC ([4]; experiment wp160, 8 hr): −0.6833
logFC ([4]; experiment wp152): −0.3941
logFC ([4]; experiment wp160, 4 hr): −0.5186
logFC ([4]; experiment wp160, 8 hr): −0.6833
logFC PTK2 [6, 8]: −0.5575
logFC PTK2 ([6]; PTK2 Q05397, experiment wp105): −0.5575
logFC ([6]; PTK2 Q05397, experiment wp114): −0.5538
logFC PTK2 ([6]; PTK2 Q05397, experiment wp114): −0.5538
logFC ([6]; PTK2 Q05397, experiment wp172): −0.8047
logFC PTK2 ([6]; PTK2 Q05397, experiment wp172): −0.8047

CC(C)S(=O)(=O)c1ccccc1Nc1nc(Nc2ccc(N3CCN(CCOCCNC(=O)CNc4cccc5c4C(=O)N(C4CCC(=O)NC4=O)C5=O)CC3)cc2)ncc1Cl (centres unmarked) [SK.3.91]
logFC PLK4 ([5]; Accession O00444, experiment wp103, direction down): −1.243
logFC PLK4 ([5]; Accession O00444, experiment wp107, direction down): −1.036
logFC PLK4 ([5]; Accession O00444, experiment wp133, 1 hr, direction down): −0.726
logFC PLK4 ([5]; Accession O00444, experiment wp133, 2 hr, direction down): −1.523
logFC PLK4 ([5]; Accession O00444, experiment wp133, 4 hr, direction down): −2.258
logFC PLK4 ([5]; Accession O00444, experiment wp160, 2 hr, direction down): −0.9266
logFC PLK4 ([5]; Accession O00444, experiment wp160, 4 hr, direction down): −1.169
logFC PLK4 ([5]; PLK4 (O00444), experiment wp133, 1 hr): −0.726
logFC PLK4 ([5]; PLK4 (O00444), experiment wp133, 2 hr): −1.523
logFC PLK4 ([5]; PLK4 (O00444), experiment wp133, 4 hr): −2.258
logFC PLK4 ([5]; PLK4 (O00444), experiment wp160, 2 hr): −0.9266
logFC PLK4 ([5]; PLK4 (O00444), experiment wp160, 4 hr): −1.169
logFC PLK4 (O00444) ([5]; experiment wp103): −1.243
logFC PLK4 (O00444) ([5]; experiment wp107): −1.036
logFC [7]: −0.8683
logFC ([7]; direction down): −0.8683
logFC ([2]; experiment wp172): −0.8176
logFC of CDK14 (O94921-1) ([2]; Experiment wp172): −0.8176
logFC of SRC ([4]; experiment wp160, 4 hr): −0.5292
logFC ([4]; experiment wp160, 4 hr): −0.5292
logFC PTK2 [6, 8]: −2.958
logFC PTK2 ([6]; PTK2 Q05397, experiment wp105): −2.958
logFC ([6]; PTK2 Q05397, experiment wp114): −1.684
logFC PTK2 ([6]; PTK2 Q05397, experiment wp114): −1.684
logFC ([6]; PTK2 Q05397, experiment wp172): −2.689
logFC PTK2 ([6]; PTK2 Q05397, experiment wp172): −2.689
logFC ([1]; experiment wp133, 4 hr): −0.544
logFC of CDK10 (Q15131-1) ([1]; experiment wp133, 4 hr): −0.544
logFC ([3]; experiment wp016, 1 uM): −0.6319
logFC RIOK2 ([3]; experiment wp016, 1 uM): −0.6319
logFC ([3]; experiment wp103): −0.8311
logFC RIOK2 ([3]; experiment wp103): −0.8311
logFC ([3]; experiment wp105): −0.482
logFC RIOK2 ([3]; experiment wp105): −0.482
logFC ([3]; experiment wp107): −0.7393
logFC RIOK2 ([3]; experiment wp107): −0.7393
logFC ([3]; experiment wp133, 4 hr): −0.6476
logFC RIOK2 ([3]; experiment wp133, 4 hr): −0.6476
logFC ([3]; experiment wp160, 4 hr): −0.4416
logFC RIOK2 ([3]; experiment wp160, 4 hr): −0.4416
